One data set deals with vertebral artery. In words: Effect on blood flow volume of vertebral artery of dog. The note with it: 1 mg/Kg intravenous; for change in vivo at 1 mg/kg: Canis lupus familiaris, read-out: Increased Blood Flow Volume in Vertebral Artery. It counts as in vivo, dog of mixed breed. The protocol:
(§1) The effect of the isoquinolinesulfonyl derivatives and the pharmaceutically acceptable acid addition salts of this invention on the vasodilatation of the femoral and vertebral arteries can be measured by anesthetizing a dog of mixed breed weighting 8 to 15 Kg by an intravenous administration of 35 mg/Kg of pentbarbital, providing an acute type probe (a product of Nippon Koden K.K., Japan) with the femoral and vertebral arteries, administering the isoquinolinesulfonyl derivatives and the pharmaceutically acceptable acid addition salts to the femoral vein through a polyethylene tube inserted into the femoral vein side chain and measuring the blood flow volume with an electromagnetic flowmeter (a product of Nippon Koden K.K., Japan, "MF-27"). Among the isoquinolinesulfonyl compounds of Formula (I) of this invention, those with l=0 and the [drawing 37] group show a high action for increasing blood flow and simultaneously a selectivity to vertebral arteries. For example, when 1 mg/Kg of 1-(5-isoquinolinesulfonyl)piperazine, i.e., Compound (35) was intravenously administered, the increased blood flow volumes in the vertebral artery and in the femoral artery were 98% and 65%, respectively. Also the isoquinolinesulfonyl compounds of Formula (I) of this invention with l=1 and one of the R2 and R3 groups=a hydrogen atom show a continuing blood flow increase. With 1 mg/Kg of N-(2-aminoethyl)-5-isoquinolinesulfonamide, i.e., Compound (1), an increase in the blood flow volume in the vertebral artery was continued for at least 30 minutes.
(§2) The effect on the vasodilatation of the femoral and vertebral arteries was measured by anesthetizing a dog of mixed breed weighing 8 to 15 Kg by an intravenous administration of 35 mg/Kg of pentabarbital, providing an acute type probe (a product of Nippon Koden K.K., Japan) with the femoral and vertebral arteries, administering the 5-isoquinolinesulfonyl derivatives and their pharmaceutically acceptable acid addition salts to the femoral vein through a polyethylene tube inserted into the femoral vein side chain and measuring the blood flow volume with an electromagnetic blood flowmeter (a product of Nippon Koden K.K., Japan, "MF-27").

A short description of data set [1]: Acute toxicity, intravenous administration to male ddY-strain mice. The note with it: mouse, in vivo. The protocol:
The acute toxicity of the 5-isoquinolinesulfonyl derivatives and their pharmaceutically acceptable acid addition salts were measured by giving male ddY-strain mice an intravenous administration.

For another data set, the system named is femoral artery. The experiment in a line: Effect on blood flow volume of femoral artery of dog. Conditions: 1 mg/Kg intravenous, anesthetized dog; for change in vivo at 1 mg/kg: Canis lupus familiaris, iv, read-out: Increased Blood Flow Volume in Femoral Artery. It counts as in vivo, dog of mixed breed. The procedure: as §1, §2
In a further data set the test system is mesenteric artery. In words: Relaxation of mesenteric artery (helical strips contracted with KCl, organ bath). The arrangement: species or system rabbit (home bred, Japanese species). Conditions: Oryctolagus cuniculus; concentration for 50% relaxation; KCl 15~20 mM contraction; read-out: Relaxation of Mesenteric Artery ED50. The procedure:
After a home bred rabbit of a Japanese species weighing about 3 Kg was subjected to bloodletting, resulting in death and then to abdominal incision, the mesenteric artery was taken out, cut into helicoids of 2 mm×25 mm and suspended in a 20 ml organ bath filled with a Krebs-Henseleit solution into which a mixed gas of 95% by volume of O2 and 5% by volume of CO2 was introduced and one end of the artery was connected with an isometric transducer. When a load of 1.5 g was applied to the artery, the contraction and the relaxation of the artery were recorded as a weight on the transducer (a product of Nippon Koden K.K., Japan, "FD Pickup TB-912T"). The relaxation of the mesenteric artery was observed by adding the isoquinolinesulfonyl derivatives and their pharmaceutically acceptable acid addition salts of this invention to the mesenteric artery at the condition of about one half of the maximum contraction with KCl at a KCl concentration of 15~20 mM. When the complete relaxation of the mesenteric artery was designated 100%, the concentration of the isoquinolinesulfonyl derivatives and their pharmaceutically acceptable acid addition salts which brought about a relaxation of 50% is shown in Table 12.

pEC50: −log10 of the molar value.

With `NCCNS(=O)(=O)c1cccc2cnccc12` [Compound 1], the change in vivo at 1 mg/kg amounted to 45% in the data set with vertebral artery (anesthetized dog) and 30% in the data set on femoral artery. The same compound showed an LD50 in data set [1] of 108 mg/kg.
For the compound `NCCCCNS(=O)(=O)c1cccc2cnccc12` [Compound 3], the change in vivo at 1 mg/kg in the data set on vertebral artery (anesthetized dog) is 36%; in the data set with femoral artery, 33%. Moreover, the LD50 in data set [1] was determined as 87 mg/kg.
In the case of `CCCCN(CCCC)CCCNS(=O)(=O)c1cccc2cnccc12` [Compound 19], the change in vivo at 1 mg/kg with vertebral artery (anesthetized dog) was 20%; in the data set with femoral artery it was 25%. The compound also registered an LD50 in data set [1] of 180 mg/kg.
With `CNS(=O)(=O)c1cccc2cnccc12` [Compound 25], the change in vivo at 1 mg/kg stood at 29% in the data set with vertebral artery (anesthetized dog) and 38% with femoral artery. The compound further registered an LD50 in data set [1] of 137 mg/kg.
The corresponding values for `O=S(=O)(c1cccc2cnccc12)N1CCCC1` [Compound 33] are 37%, 35% and 150 mg/kg.
Turning to `O=S(=O)(c1cccc2cnccc12)N1CCNCC1` [Compound 35], the change in vivo at 1 mg/kg in the data set on vertebral artery (anesthetized dog) is 98%; with femoral artery, 69%. Also, the LD50 in data set [1] is 29 mg/kg.
Taken in the same sequence, the figures for `CN1CCN(S(=O)(=O)c2cccc3cnccc23)CC1` [Compound 36] were 63%, 35% and 94 mg/kg.
The corresponding values for `CC1CN(S(=O)(=O)c2cccc3cnccc23)CCN1` (stereo not drawn) [Compound 37] are 90%, 65% and 89 mg/kg.
In the case of `CC1CN(S(=O)(=O)c2cccc3cnccc23)C(C)CN1` (stereo not drawn) [Compound 40], the results for the change in vivo at 1 mg/kg in the data set on vertebral artery (anesthetized dog) and in the data set on femoral artery were 110% and 50%, respectively. The LD50 in data set [1] is 42 mg/kg.
With `CC(C)CC1CN(S(=O)(=O)c2cccc3cnccc23)CCN1` (stereo not drawn) [Compound 46], the figures for the change in vivo at 1 mg/kg in the data set with vertebral artery (anesthetized dog) and in the data set on femoral artery were 55% and 32%, respectively. Further, the LD50 in data set [1] came to 130 mg/kg.
On to `CCCCCCN1CCN(S(=O)(=O)c2cccc3cnccc23)CC1` [Compound 51], for which the change in vivo at 1 mg/kg is 68% in the data set on vertebral artery (anesthetized dog) and 39% in the data set with femoral artery. For the same compound, the LD50 in data set [1] is 108 mg/kg.
For the compound `O=S(=O)(c1cccc2cnccc12)N1CCN(CC=Cc2ccccc2)CC1` [Compound 59], the values for the change in vivo at 1 mg/kg with vertebral artery (anesthetized dog) and in the data set with femoral artery were 49% and 25%, respectively. In addition, in data set [1], the LD50 was found to be 145 mg/kg.
Regarding `NCCNS(=O)(=O)c1cccc2cnccc12` [Compound (1), N-(2-aminoethyl)-5-isoquinolinesulfonamide], the pEC50 with mesenteric artery was 5.30. In addition, the “Duration of increase in the blood flow volume in the vertebral artery” value in the data set on vertebral artery (dog) is “at least 30 minutes”.
`O=S(=O)(c1cccc2cnccc12)N1CCNCC1` [Compound (35), 1-(5-isoquinolinesulfonyl)piperazine]: in the data set with mesenteric artery, the pEC50 was 6.22. Further, in the data set with vertebral artery (anesthetized dog), the “Increased Blood Flow Volume in Vertebral Artery” value came out at 98%. Also, the “Increased Blood Flow Volume in Femoral Artery” value in the data set with femoral artery worked out at 65%.
Take `CC(C)C1CN(S(=O)(=O)c2cccc3cnccc23)CCN1` (stereo not drawn) [Compound (45), 1-(5-isoquinolinesulfonyl)-3-isopropylpiperazine]: the pEC50 with mesenteric artery is 5.12.
On to `CC(C)CC1CN(S(=O)(=O)c2cccc3cnccc23)CCN1` (stereo not drawn) [Compound (46), 1-(5-isoquinolinesulfonyl)-3-isobutylpiperazine], for which, in the data set with mesenteric artery, the pEC50 was 5.19.
On to `CC(C)CN1CCN(S(=O)(=O)c2cccc3cnccc23)CC1` [Compound (47), 1-(5-isoquinolinesulfonyl)-4-isobutylpiperazine], for which, in the data set with mesenteric artery, the pEC50 was 4.62.
Regarding `CCC1CN(S(=O)(=O)c2cccc3cnccc23)C(CC)CN1` (stereo not drawn) [Compound (48), 1-(5-isoquinolinesulfonyl)-2,5-diethylpiperazine], the pEC50 in the data set on mesenteric artery was 5.74.
The same measure, in the same setting: next, `CC(C)CC1CN(S(=O)(=O)c2cccc3cnccc23)C(C)CN1` (stereo not drawn) [Compound (49), 1-(5-isoquinolinesulfonyl)-2-methyl-5-isobutylpiperazine]: 5.00.
The same measure, in the same setting: the same measure for `CC1CNC(Cc2ccccc2)CN1S(=O)(=O)c1cccc2cnccc12` (stereo not drawn) [Compound (50), 1-(5-isoquinolinesulfonyl)-2-methyl-5-benzylpiperazine]: 4.80.
Turning to `CCCCCCN1CCN(S(=O)(=O)c2cccc3cnccc23)CC1` [Compound (51), 1-(5-isoquinolinesulfonyl)-4-hexylpiperazine], the pEC50 in the data set on mesenteric artery is 4.72.
As to `O=S(=O)(c1cccc2cnccc12)N1CCNC(c2ccccc2)C1` (stereo not drawn) [Compound (53), 1-(5-isoquinolinesulfonyl)-3-phenylpiperazine], the pEC50 with mesenteric artery is 5.15.
With `O=S(=O)(c1cccc2cnccc12)N1CCNC(Cc2ccccc2)C1` (stereo not drawn) [Compound (54), 1-(5-isoquinolinesulfonyl)-3-benzylpiperazine], the pEC50 with mesenteric artery is 4.96.
As for `O=S(=O)(c1cccc2cnccc12)N1CCN(c2ccccc2)CC1` [Compound (55), 1-(5-isoquinolinesulfonyl)-4-phenylpiperazine], the pEC50 with mesenteric artery is 5.05.
Turning to `O=S(=O)(c1cccc2cnccc12)N1CCN(Cc2ccccc2)CC1` [Compound (56), 1-(5-isoquinolinesulfonyl)-4-benzylpiperazine], the pEC50 in the data set on mesenteric artery was 4.64.
Still for that read-out and setting: next, `O=S(=O)(c1cccc2cnccc12)N1CCN(CCc2ccccc2)CC1` [Compound (57), 1-(5-isoquinolinesulfonyl)-4-phenethylpiperazine]: 4.92.
Still for that read-out and setting: the same measure for `O=C(c1ccccc1)N1CCN(S(=O)(=O)c2cccc3cnccc23)CC1` [Compound (58), 1-(5-isoquinolinesulfonyl)-4-benzoylpiperazine]: 4.40; for `O=S(=O)(c1cccc2cnccc12)N1CCN(CC=Cc2ccccc2)CC1` [Compound (59), 1-(5-isoquinolinesulfonyl)-4-cinnamylpiperazine]: 5.17.
The same measure, in the same setting: next, `O=C(C=Cc1ccccc1)N1CCN(S(=O)(=O)c2cccc3cnccc23)CC1` [Compound (60), 1-(5-isoquinolinesulfonyl)-4-cinnamoylpiperazine]: 4.57; `O=C(c1ccco1)N1CCN(S(=O)(=O)c2cccc3cnccc23)CC1` [Compound (61), 1-(5-isoquinolinesulfonyl)-4-furoylpiperazine]: 4.62.
Consider `CCOC(CN1CCN(S(=O)(=O)c2cccc3cnccc23)CC1)c1ccccc1` (stereo not drawn) [Compound (63), 1-(5-isoquinolinesulfonyl)-4-(2-ethoxy-2-phenylethyl)piperazine], for which the pEC50 in the data set on mesenteric artery is 4.89.
On to `CN(CCNS(=O)(=O)c1cccc2cnccc12)Cc1ccccc1` [Compound (65), N-[2-(N-methyl-N-benzylamino)ethyl]-5-isoquinolinesulfonamide], for which the pEC50 with mesenteric artery was 4.89.
Same read-out and setting: next, `CC(C)N(CCNS(=O)(=O)c1cccc2cnccc12)Cc1ccccc1` [Compound (67), N-[2-(N-isopropyl-N-benzylamino)ethyl]-5-isoquinolinesulfonamide]: 4.74.
